Source: paper PMC5740082, “Identification of a CARM1 Inhibitor with Potent In Vitro and In Vivo Activity in Preclinical Models of Multiple Myeloma” (Scientific Reports, 2017)

Columns and labels:
[1] = molecular target: T1, rat recombinant kappa-opioid (KOP) receptor (Rattus norvegicus, UniProt P34975); assay: kappa-opioid (KOP) receptor binding assay
T1 construct: purchased CEREP, Redmond, WA (ExpresSProfile screen)
Source text: […]. […] […]. […] […].

[2] = system: 40 protein kinases, lipid kinases and kinase mutants; assay: KinaseProfiler screen (Millipore); format: biochemical; conditions: 10 μM
LP-1 = assay: Six-day cell proliferation assay (CellTiter-Glo); format: cell-based; conditions: Homo sapiens, 144 h; LP-1 (MM), 6 days; read-out: Average day 6 gIC50
Experimental: (§1) Six-day cell proliferation assay
(§2) Optimal cell seeding density was determined empirically for each cell lines by examining the gro wth of a wide ran ge o f seedin g densities in a 3 84-well formatto identify conditio ns that permitted maximal and continued proliferation for 6 days. Cells were plat ed in duplicate plates 24 hours before treatment with a 20- point two-fold dilution series of compound or 0.15%
(§3) DMSO. Plates were incubated for 6 da ys at 37°C in 5% CO2. Cells were th en l ysed with CellTiter-Glo (CTG) (Pr omega) and chemiluminescent sign al was detected with an appropriat e microplate reader. In addition, an untreated plate of cells was harvested at the time of compound addition (T0) to quantif y the initial cell densit y. CTG values obtained after 6 days of treatment were expressed as a percent of the T0 value and plotted against compound concentration. […]
(§4) Supplementary Table S 3. […] A p anel […]
(§5) of cell lines was treated with EZM2302fo r 6da ys in a proliferation ass a y. Cell densit y (as assessed b y CellTiter-Gl o) at da y 0 was compared to day 6 to det ermine growth IC 50 values , calculated us i n g a f our parameter dose response equation.
(§6) Cell Type According to Cell Type Category Cell L ine Name gIC50 Average day 6 Standard Replicates
(§7) Supplier Modifier gIC50 (nM) Deviation […]
(§8) Burkitt lymphoma lymphoma NC-37 > 7331 0 2 […]

KMS-12PE = assay: Six-day cell proliferation assay (CellTiter-Glo); format: cell-based; conditions: Homo sapiens, 144 h; KMS-12PE (MM, Pleural effusion), 6 days; read-out: Average day 6 gIC50
Experimental: as §1, §2, §3, §4, §5, §6, §7, §8

L363 = assay: Six-day cell proliferation assay (CellTiter-Glo); format: cell-based; conditions: Homo sapiens, L-363, 144 h; L363 (Plasma cell leukemia), 6 days; read-out: Average day 6 gIC50
Experimental: as §1, §2, §3, §4, §5, §6, §7, §8

JM1 = assay: Six-day cell proliferation assay (CellTiter-Glo); format: cell-based; conditions: Homo sapiens, 144 h; JM1 (B-cell lymphoma), 6 days; read-out: Average day 6 gIC50
Experimental: as §1, §2, §3, §4, §5, §6, §7, §8

EJM = assay: Six-day cell proliferation assay (CellTiter-Glo); format: cell-based; conditions: Homo sapiens, 144 h; EJM (MM), 6 days; read-out: Average day 6 gIC50
Experimental: as §1, §2, §3, §4, §5, §6, §7, §8

AMO-1 = assay: Six-day cell proliferation assay (CellTiter-Glo); format: cell-based; conditions: Homo sapiens, AMO1, 144 h; AMO-1 (Plasmacytoma), 6 days; read-out: Average day 6 gIC50
Experimental: as §1, §2, §3, §4, §5, §6, §7, §8

JJN3 = assay: Six-day cell proliferation assay (CellTiter-Glo); format: cell-based; conditions: Homo sapiens, JJN-3, 144 h; JJN3 (Plasma cell leukemia), 6 days; read-out: Average day 6 gIC50
Experimental: as §1, §2, §3, §4, §5, §6, §7, §8

MV-4-11 = assay: Six-day cell proliferation assay (CellTiter-Glo); format: cell-based; conditions: Homo sapiens, MV4-11, 144 h; MV-4-11 (AML), 6 days; read-out: Average day 6 gIC50
Experimental: as §1, §2, §3, §4, §5, §6, §7, §8

KMS-12BM = assay: Six-day cell proliferation assay (CellTiter-Glo); format: cell-based; conditions: Homo sapiens, 144 h; KMS-12BM (MM, Bone marrow), 6 days; read-out: Average day 6 gIC50
Experimental: as §1, §2, §3, §4, §5, §6, §7, §8

GDM-1 = assay: Six-day cell proliferation assay (CellTiter-Glo); format: cell-based; conditions: Homo sapiens, 144 h; GDM-1 (AML), 6 days; read-out: Average day 6 gIC50
Experimental: as §1, §2, §3, §4, §5, §6, §7, §8

HT = assay: Six-day cell proliferation assay (CellTiter-Glo); format: cell-based; conditions: Homo sapiens, 144 h; HT (GCB DLBCL), 6 days; read-out: Average day 6 gIC50
Experimental: as §1, §2, §3, §4, §5, §6, §7, §8

MOLP-2 = assay: Six-day cell proliferation assay (CellTiter-Glo); format: cell-based; conditions: 144 h; MOLP-2 (MM), 6 days; read-out: Average day 6 gIC50
Experimental: as §1, §2, §3, §4, §5, §6, §7, §8

MC/CAR = assay: Six-day cell proliferation assay (CellTiter-Glo); format: cell-based; conditions: 144 h; MC/CAR (EBV+ B-lymphoblastoid), 6 days; read-out: Average day 6 gIC50
Experimental: as §1, §2, §3, §4, §5, §6, §7, §8

MOLP-8 = assay: Six-day cell proliferation assay (CellTiter-Glo); format: cell-based; conditions: Homo sapiens, 144 h; MOLP-8 (MM), 6 days; read-out: Average day 6 gIC50
Experimental: as §1, §2, §3, §4, §5, §6, §7, §8

NC-37 = assay: Six-day cell proliferation assay (CellTiter-Glo); format: cell-based; conditions: Homo sapiens, 144 h; NC-37 (Burkitt lymphoma), 6 days; read-out: Average day 6 gIC50
Experimental: as §1, §2, §3, §4, §5, §6, §7, §8

KMS-11 = assay: Six-day cell proliferation assay (CellTiter-Glo); format: cell-based; conditions: Homo sapiens, 144 h; KMS-11 (Myeloma), 6 days; read-out: Average day 6 gIC50
Experimental: as §1, §2, §3, §4, §5, §6, §7, §8

MOLM-16 = assay: Six-day cell proliferation assay (CellTiter-Glo); format: cell-based; conditions: MOLM16, 144 h; MOLM-16 (AML), 6 days; read-out: Average day 6 gIC50
Experimental: as §1, §2, §3, §4, §5, §6, §7, §8

HuNS1 = assay: Six-day cell proliferation assay (CellTiter-Glo); format: cell-based; conditions: 144 h; HuNS1 (Transformed B-lymphoblastoid), 6 days; read-out: Average day 6 gIC50
Experimental: as §1, §2, §3, §4, §5, §6, §7, §8

NCI-H929 = assay: Six-day cell proliferation assay (CellTiter-Glo); format: cell-based; conditions: Homo sapiens, 144 h; NCI-H929 (MM), 6 days; read-out: Average day 6 gIC50
Experimental: as §1, §2, §3, §4, §5, §6, §7, §8

KASUMI-1 = assay: Six-day cell proliferation assay (CellTiter-Glo); format: cell-based; conditions: Homo sapiens, 144 h; KASUMI-1 (AML), 6 days; read-out: Average day 6 gIC50
Experimental: as §1, §2, §3, §4, §5, §6, §7, §8

MM.1R = assay: Six-day cell proliferation assay (CellTiter-Glo); format: cell-based; conditions: 144 h; MM.1R (MM), 6 days; read-out: Average day 6 gIC50
Experimental: as §1, §2, §3, §4, §5, §6, §7, §8

ARH-77 = assay: Six-day cell proliferation assay (CellTiter-Glo); format: cell-based; conditions: Homo sapiens, 144 h; ARH-77 (EBV+ lymphoblastoid), 6 days; read-out: Average day 6 gIC50
Experimental: as §1, §2, §3, §4, §5, §6, §7, §8

DB = assay: Six-day cell proliferation assay (CellTiter-Glo); format: cell-based; conditions: Homo sapiens, 144 h; DB (GCB DLBCL), 6 days; read-out: Average day 6 gIC50
Experimental: as §1, §2, §3, §4, §5, §6, §7, §8

DOHH-2 = assay: Six-day cell proliferation assay (CellTiter-Glo); format: cell-based; conditions: Homo sapiens, 144 h; DOHH-2 (tFL), 6 days; read-out: Average day 6 gIC50
Experimental: as §1, §2, §3, §4, §5, §6, §7, §8

T1 sequence (P34975 whole entry): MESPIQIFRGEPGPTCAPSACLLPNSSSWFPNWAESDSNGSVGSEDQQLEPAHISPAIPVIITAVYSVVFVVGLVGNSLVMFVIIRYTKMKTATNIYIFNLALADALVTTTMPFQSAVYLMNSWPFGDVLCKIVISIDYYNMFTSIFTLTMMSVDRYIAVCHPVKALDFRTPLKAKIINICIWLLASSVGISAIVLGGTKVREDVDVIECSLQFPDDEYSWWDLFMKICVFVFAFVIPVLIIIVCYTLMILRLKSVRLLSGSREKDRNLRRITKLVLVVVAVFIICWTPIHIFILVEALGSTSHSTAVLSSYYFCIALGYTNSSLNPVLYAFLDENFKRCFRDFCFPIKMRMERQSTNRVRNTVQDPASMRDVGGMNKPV

CNC[C@@H](O)COc1ccc(Cl)c(-c2nc(-c3c(C)noc3C)c(C)c(N3CC4(CCN(C(=O)OC)CC4)C3)n2)c1 [EZM2302] showed an IC50 [1] of 3.3 µM, an inhibition at 10 µM ([1]; 10 μM) of 69% and an inhibition of kinases [2] of at most 30%. It also gave an IC50 (LP-1) of 2.65 µM, an IC50 (KMS-12PE) of over 17.9 µM and an IC50 (L363) of 16.1 µM. It also gave an IC50 (JM1) of over 7.33 µM, an IC50 (EJM) of over 20.2 µM and an IC50 (AMO-1) of over 25.9 µM. It also gave an IC50 (JJN3) of over 13 µM, an IC50 (MV-4-11) of over 7.86 µM and an IC50 (KMS-12BM) of over 15.5 µM. For the same compound, the IC50 (GDM-1) was 20.7 µM, the IC50 (HT) was over 7.33 µM and the IC50 (MOLP-2) was over 30.7 µM. For the same compound, the IC50 (MC/CAR) was 0.241 µM, the IC50 (MOLP-8) was 6.62 µM and the IC50 (NC-37) was over 7.33 µM. It also gave an IC50 (KMS-11) of over 18.2 µM, an IC50 (MOLM-16) of 6.54 µM and an IC50 (HuNS1) of over 19 µM. The IC50 (NCI-H929) was 0.862 µM, the IC50 (KASUMI-1) was 13.3 µM and the IC50 (MM.1R) was 0.216 µM. For the same compound, the IC50 (ARH-77) was over 4.27 µM, the IC50 (DB) was over 7.33 µM and the IC50 (DOHH-2) was 0.468 µM.
